Source: PMC9658513, “Discovery of Compounds That Selectively Repress the Amyloidogenic Processing of the Amyloid Precursor Protein: Design, Synthesis and Pharmacological Evaluation of Diphenylpyrazoles” (International Journal of Molecular Sciences, 2022)
Like-named read-outs stand apart in the source and are kept apart here.

Experiments:
Type in all cases: cell-based, human
[1] = system: Aβ1–40 peptide secretion; assay: Aβ1–40 secretion in cell medium by ELISA
Procedure, shortened: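 SY5Y-APP^WT cells (SH-SY5Y human neuroblastoma stably expressing human wild-type APP695) were treated with compounds for 24 h in supplemented DMEM at 37 °C. Secreted Aβ1–40 and Aβ1–42 were quantified in the collected, centrifuged conditioned medium by ELISA, in pg/mL.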

[2] = in vitro; conditions: human
Procedure, shortened: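 Cells seeded at 3 × 10^4 per well, attached 24 h, then exposed to drug for 72 h in DMEM with 10% SVF. Viability by MTS colorimetric assay, absorbance at 490 nm.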

[3] = system: p62; assay: Autophagic flux: p62 expression by Western blot; conditions: 24 h, compound at 3 µM, SY5Y-APP^wt cells, vs control; for fold induction at 3 µM: Homo sapiens
From the text: Previous work dedicated to compounds of family C [22] has underlined the effect of our compounds on autophagic flux and the lysosomal degradation pathways. More precisely, the role of the amino side chains and their number was highlighted. Therefore, we assessed whether the activity of compounds involved the modulation of lysosomal activities toward the accumulation of APP-CTFs and AICD. Thus, we studied the effect of a selection of compounds on the autophagic flux, more particularly, we evaluated the effect of compounds 24, 33, 34, 57, 65, 67, 70, and 71 on two markers associated with autophagy: p62 and LC3-I lipidation into LC3-II. To the previous selection of efficient compounds decreasing Aβ1–x production and increasing CTFα and AICD, we added compound 65 with no cytotoxicity at 100 µM. As a comparison, we also selected compound 57 with a hydroxymethyl substituent as a control. In addition to CQ, bafilomycin A, a well-known inhibitor of autophagic flux, was used as a control. Treatment with compounds 67 and 71 induced an increase in p62 expression by 2.5 and 4-fold, respectively, compared to the control condition (Figure 3). […] An increase in the two markers was also observed with compound 57, but to a smaller extent (1.7-fold for p62 and 2-fold for LC3-I/LC3-II).
The human neuroblastoma cell line SY5Y-APP^695WT was maintained in Dulbecco’s modified Eagle medium (DMEM, high glucose, pyruvate—GIBCO, Life Technologies, Carlsbad, CA, USA) supplemented with 10% fetal bovine serum, 2 mM L-glutamine, 1 mM non-essential amino acids and penicillin/streptomycin (GIBCO, Life Technologies, Carlsbad, CA, USA) at 37 °C in a 5% CO2 humidified incubator [36]. For compound treatment, a 10 mM stock solution was diluted in freshly supplemented DMEM medium to obtain the precise final concentration of the drug. Cells were plated at a density of 5 × 10^5 cells per well into 12-well plates and cultured with 1 mL supplemented DMEM cell medium for 24 h before compound exposure. The following day, the cell medium was replaced with fresh medium containing the compounds diluted at the indicated concentrations. Cells were treated for 24 h. At the end of the treatments, the cell medium was collected and kept at −80 °C until use, cells were rinsed once with PBS and extracted in 100 µL of Laemmli buffer (10 mM Tris, 20% glycerol, and 2% sodium dodecyl sulfate) using a cell-scraper. The cell lysate was further sonicated (30 pulses of 0.5 s, 60 Hz) for 5 min. Total protein concentration was determined using the Pierce BCA Protein Assay Kit (Thermo Scientific, Waltham, MA, USA) according to the manufacturer’s instructions. Samples were stored at −80 °C until analysis.
Cell protein lysates were prepared for Western blot analysis by diluting the sample with 1 volume of NuPAGE® lithium dodecyl sulfate (LDS) 2X sample buffer supplemented with 20% NuPAGE® sample reducing agents (Invitrogen). Samples were heated for 10 min at 100 °C. Ten µg of total proteins per well were loaded onto precast 4–12% Criterion XT Bis-Tris polyacrylamide gels (Bio-Rad) and electrophoresis was achieved after applying a tension of 150 V for 90 min using a Criterion electrophoresis cell with the NuPAGE® MOPS SDS running buffer (1X). Proteins were transferred to a nitrocellulose membrane of […] pore size (G&E Healthcare, Madison, WI, USA) using the Criterion blotting system and applying a tension of 100 V for 45 min. To resolve proteins of low molecular weights such as carboxy-terminal fragments of APP, 12% Criterion XT Bis-Tris polyacrylamide gels (Bio-Rad, Hercules, CA, USA) were used, and electrophoresis was performed for 70 min at 150 V in a NuPAGE® MES SDS running buffer (1X). Proteins were transferred to a nitrocellulose membrane of 0.2 µm pore size (G&E Healthcare, Madison, WI, USA) at 100 V for 40 min. Molecular weight calibration was achieved using molecular weight markers (Novex and Magic Marks, Life Technologies, Carlsbad, CA, USA). […]

[4] = Homo sapiens, SY5Y-APP^WT cells, 24 h treatment, mean ± SD of at least three experiments in triplicate, read-out: Aβ1–40 IC50
[5] = Homo sapiens, Aβ1–40 and Aβ1–42 not distinguished, read-out: IC50 for Aβ secretion (Aβ1–x production)

Molecule	IC50 [1, 4] [nM]	IC50 [1, 5] [nM]	IC50 ([1]; SY5Y-APP^WT cells, 24 h treatment, mean ± SD of at least three experiments in triplicate, read-out: Aβ1–40 IC50) [nM]	CC50 at 72 h [2] [nM]	fold induction at 3 µM [3]	p62 [3] [Fold-change]
Cc1cn(-c2cccc(CN(C)C)c2)nc1-c1cccc(CN(C)CCCN(C)C)c1 [Compound 70, N′-[[3-[1-[3-(Dimethylaminomethyl)phenyl]-4-methyl-pyrazol-3-yl]phenyl] Methyl]-N,N,N′-trimethyl-propane-1,3-diamine]	1500 ± 100	–	–	51000	3	–
Cc1cn(-c2cccc(CO)c2)nc1-c1ccc(CN(C)CCCN(C)C)cc1 [Compound 57, (3-{3-[4-({[3-(Dimethylamino)propyl](methyl)amino}methyl)phenyl]-4-methyl-1H-pyrazol-1-yl}phenyl)methanol]	2900 ± 1000	–	–	> 100000	1.7	–
N′-[[4-[4-[3-(Dimethylamino)propyl]-3-[4-[3-(dimethylamino)propyl]phenyl] Pyrazol-1-yl]phenyl]methyl]-N,N,N′-trimethyl-propane-1,3-diamine [Compound 33]	–	–	9200 ± 400	–	–	1.04
Cc1cn(-c2cccc(CN3CCN(C)CC3)c2)nc1-c1cccc(CN(C)C)c1 [Compound 65, N,N-dimethyl-1-[3-[4-methyl-1-[3-[(4-methylpiperazin-1-yl)methyl]phenyl]pyrazol-3-yl]phenyl]methanamine]	2000 ± 700	–	–	> 100000	1.64	–
CN(C)CCCc1ccc(-c2nn(-c3ccc(CN(C)C)cc3)cc2CN(C)C)cc1 [Compound 24, 3-[4-[4-(Dimethylaminomethyl)-1-[4-(dimethylaminomethyl)phenyl] Pyrazol-3-yl]phenyl]-N,N-dimethyl-propan-1-amine]	1500 ± 100	–	–	> 100000	1.64	–

Further lines, with some results ahead:

IC50 [1, 4] [nM]	IC50 [1, 5] [nM]	IC50 ([1]; SY5Y-APP^WT cells, 24 h treatment, mean ± SD of at least three experiments in triplicate, read-out: Aβ1–40 IC50) [nM]	Molecule	CC50 at 72 h [2] [nM]	fold induction at 3 µM [3]	p62 [3] [Fold-change]
1300 ± 100	~1000	–	Cc1cn(-c2cccc(CN(C)C)c2)nc1-c1ccc(CN(C)CCCN(C)C)cc1 [Compound 67, {[4-(1-{3-[(Dimethylamino)methyl]phenyl}-4-methyl-1H-pyrazol-3-yl)phenyl]methyl} [3-(Dimethylamino)propyl]methylamine]	12000	2.5	–
1200 ± 100	~1000	–	Cc1cn(-c2cccc(CN3CCN(C)CC3)c2)nc1-c1cccc(CN(C)CCCN(C)C)c1 [Compound 71, N,N,N′-Trimethyl-N′-[[3-[4-methyl-1-[3-[(4-methylpiperazin-1-yl)methyl]phenyl]pyrazol-3-yl]phenyl]methyl]propane-1,3-diamine]	25000	4	–
